From patent US10258687B2, “Development of methods for production of a whole virus vaccine candidate stock and novel adaptive mutations in hepatitis C virus” (Hvidovre Hospital, priority 2014, dated 2019)
“And” between values parts separate entries of the source, which are not always exact repeats. Identical values can stand only once. Counter-ions that a name gives are not always drawn.

Assays:
Huh7.5 cells [1] = test: Chlorpromazine cytotoxicity (cell viability assay); assay type: cell-based, Human; conditions: 6 hours treatment
Experimental: For determination of Huh7.5 cell viability in DMEM+10% FBS versus AEM, we plated 6,000 cells per well of poly-D-lysine coated 96-well plates in DMEM+10% FBS. The following day, medium was removed and cells were incubated in DMEM+10% FBS or AEM for 48 hours. Then, cell viability was determined using the CellTiter 96® AQueous One Solution Cell Proliferation Assay kit (Promega) according to the manufacturer's instructions. The % viability was calculated by relating absorbance at 490 nm determined for 10 AEM cultures to the mean absorbance of 10 replicate DMEM+10% FBS cultures. For determination of chlorpromazine cytotoxicity, chlorpromazine was diluted in DMEM+10% FBS as specified and then added to 6,000 Huh 7.5 cells/well, plated the previous day in poly-D-lysine coated 96-well plates. Cells were incubated for 6 hours before chlorpromazine was removed and DMEM+10% FBS was added. Cell viability was determined 6 and 48 hours post-treatment using the CellTiter 96® AQueous One Solution Cell Proliferation Assay kit. The % viability was calculated by relating absorbance at 490 nm determined for chlorpromazine treated cultures to the mean absorbance of at least three replicate untreated cultures.

[2] = tested on: clathrin-mediated endocytosis; test: Chlorpromazine inhibition of HCVcc and sf-HCVcc entry; assay type: cell-based, Human; conditions: genotype 1-6 HCVcc and sf-HCVcc, cells pre-treated, up to 10 μg/mL
Experimental: FIG. 11: Effect of chlorpromazine treatment on HCVcc and sf-HCVcc entry. (A-G) Chlorpromazine was diluted in DMEM+10% FBS to the concentrations indicated and then added to Huh7.5 cells, plated the previous day onto poly-D-lysine coated 96-well plates, and incubated for 30 minutes. HCVcc (black bars) were diluted in DMEM+10% FBS and sf-HCVcc (grey bars) were diluted in AEM+10% FBS and added to cultures. After 6 hours incubation, chlorpromazine-virus mixes were removed and DMEM+10% FBS was added. Cells were fixed 48 hours post infection and stained, and the number of single HCV NS5A positive cells per well was determined by automated counting as described in Materials and Methods. The HCV Core-E2 sequences of all virus stocks used were determined by direct sequencing. Sequences were identical for HCVcc and sf-HCVcc of the same recombinant. Compared to the plasmid sequence, H77(1a) viruses had acquired amino acid change I348S and J4(1b) had acquired amino acid change V710L, both estimated to be present in the majority of viral genomes. The % blocking was calculated by relating counts of experimental wells to the mean count of six replicate wells with untreated control virus. […] The % viability was calculated by relating absorbance at 490 nm determined for chlorpromazine treated cultures to the mean absorbance of three replicate untreated cultures. […]

Huh7.5 cells [3] = test: Infectivity of virus diluted in different media (FIG. 7); assay type: cell-based, Human; conditions: virus diluted in AEM prior to infection
Experimental: (A-C) Cells were incubated with virus mixes for 3 hours. After incubation, fresh DMEM+10% FBS was added to all wells. Cells were incubated for 48 hours before they were fixed, stained and the number of single HCV NS5A positive cells per well was determined by automated counting as described in Materials and Methods. Error bars represent SEM of triplicates. For (B), the mean infectivity (HCV NS5A positive cells/well) of triplicate wells of the reference culture (DMEM+10% FBS, black bar) was set to 100%. The number of HCV NS5A positive cells/experimental well was related to this mean to calculate % infectivity relative to the reference culture.

Huh7.5 cells [4] = test: Supernatant infectivity titration (FFU assay) after transfection, infection or serial passage, Example 2; assay type: cell-based, Human; conditions: both kinetics experiments (MOIs of 0.003 and 0.0003)
Experimental: For transfection of Huh7.5 cells, 350,000 cells/well were seeded in 6-well plates (Nunc) and incubated for 24 hours. Plasmids (10 μg) were linearized by over-night digestion with XbaI (New England Biolabs). Linearized plasmids were purified using Wizard® SV Gel and PCR Clean-Up System (Promega). In vitro transcription was performed using T7 RNA polymerase (Promega) for 2 hours at 37° C. Transfection was performed by incubating 5 μL lipofectamine 2000 (Invitrogen) and the RNA transcripts in 500 μL serum-free Opti-MEM (Gibco/Invitrogen) for 20 minutes at room temperature. RNA-lipofectamine complexes were added to the pre-plated cells and incubated for 16-24 hours. Transfection efficiencies and culture spread were determined by HCV NS5A immunostaining (see below). […]
For infection of Huh7.5 cells in culture flasks, cells were seeded and incubated for 24 hours. When cells were evaluated to be ˜80% confluent, they were infected at a multiplicity of infection (MOI) of either 0.003 or 0.0003 for 3 hours (see Figure legends for details). […] Infection spread was monitored by HCV NS5A immunostaining (see below). […] For serum-free cultures, cells were infected in complete DMEM as described above and spread was monitored by NS5A immunostaining. […]
Culture supernatant infectivity titers were determined as Focus Forming Units (FFU)/mL. […]

[5] = serial passage by others; cited from earlier work

| Compound | highest concentration not resulting in cytotoxic effects (Huh7.5 cells [1]) [µg/mL] | blocking rates [2] | infectivity using AEM during the viral infection step (in words) (Huh7.5 cells [3]) | peak infectivity titers (Huh7.5 cells [4]) | peak infectivity titers of adapted stocks [5] |
| --- | --- | --- | --- | --- | --- |
| CN(C)CCCN1c2ccccc2Sc2ccc(Cl)cc21 [chlorpromazine, chlorpromazine hydrochloride] | 10 | up to 93% | – | – | – |
| J6/JFH1 [J6(2a)] | – | – | infectivity was also reduced | 4.8 log 10 FFU/mL and 4.9 log 10 FFU/mL | 8 log 10 TCID50/mL and ~6.5 log 10 TCID50/mL |
